Reference: patent US20020026053A1, “Novel 3-(substituted) -2- indolinones compounds and use thereof as inhibitors of protein kinase activity” (priority 1997, published 2002)

Key:
EGFR = target: T1, EGFR (Homo sapiens, UniProt P00533); experiment: Biochemical EGFR Assay; set-up: concentration or dose not given beside the values; conditions: protocol P.167
T1 construct: endogenous in cells; host or cells: A431 cells (lysate, captured with SUMO1 anti-EGFR antibody)
Method in brief: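 Readout is ABTS absorbance at 410 nm after anti-phosphotyrosine and HRP-antibody detection of EGFR autophosphorylation. The kinase was immunocaptured from A431 lysate, exposed 30 min to test compound diluted 1:10 in TBS, then phosphorylated for 5 min with ATP/MnCl2 before an EDTA stop.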

PDGF-R = PDGF-R Assay (cellular ELISA, U1242 cells); type: cell-based; set-up: concentration or dose not given beside the values; conditions: protocol P.119
Method in brief: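 Cellular ELISA for receptor autophosphorylation: after 2 hr test-compound treatment of serum-free U1242 cells at 37°C, ligand is added for 5–10 min, cells are lysed (HNTG) and receptor captured by specific antibody. Anti-phosphotyrosine plus secondary antibody with ABTS colour read at 410/630 nm, compared with compound-free control cells.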

T1 sequence (P00533 25-1210): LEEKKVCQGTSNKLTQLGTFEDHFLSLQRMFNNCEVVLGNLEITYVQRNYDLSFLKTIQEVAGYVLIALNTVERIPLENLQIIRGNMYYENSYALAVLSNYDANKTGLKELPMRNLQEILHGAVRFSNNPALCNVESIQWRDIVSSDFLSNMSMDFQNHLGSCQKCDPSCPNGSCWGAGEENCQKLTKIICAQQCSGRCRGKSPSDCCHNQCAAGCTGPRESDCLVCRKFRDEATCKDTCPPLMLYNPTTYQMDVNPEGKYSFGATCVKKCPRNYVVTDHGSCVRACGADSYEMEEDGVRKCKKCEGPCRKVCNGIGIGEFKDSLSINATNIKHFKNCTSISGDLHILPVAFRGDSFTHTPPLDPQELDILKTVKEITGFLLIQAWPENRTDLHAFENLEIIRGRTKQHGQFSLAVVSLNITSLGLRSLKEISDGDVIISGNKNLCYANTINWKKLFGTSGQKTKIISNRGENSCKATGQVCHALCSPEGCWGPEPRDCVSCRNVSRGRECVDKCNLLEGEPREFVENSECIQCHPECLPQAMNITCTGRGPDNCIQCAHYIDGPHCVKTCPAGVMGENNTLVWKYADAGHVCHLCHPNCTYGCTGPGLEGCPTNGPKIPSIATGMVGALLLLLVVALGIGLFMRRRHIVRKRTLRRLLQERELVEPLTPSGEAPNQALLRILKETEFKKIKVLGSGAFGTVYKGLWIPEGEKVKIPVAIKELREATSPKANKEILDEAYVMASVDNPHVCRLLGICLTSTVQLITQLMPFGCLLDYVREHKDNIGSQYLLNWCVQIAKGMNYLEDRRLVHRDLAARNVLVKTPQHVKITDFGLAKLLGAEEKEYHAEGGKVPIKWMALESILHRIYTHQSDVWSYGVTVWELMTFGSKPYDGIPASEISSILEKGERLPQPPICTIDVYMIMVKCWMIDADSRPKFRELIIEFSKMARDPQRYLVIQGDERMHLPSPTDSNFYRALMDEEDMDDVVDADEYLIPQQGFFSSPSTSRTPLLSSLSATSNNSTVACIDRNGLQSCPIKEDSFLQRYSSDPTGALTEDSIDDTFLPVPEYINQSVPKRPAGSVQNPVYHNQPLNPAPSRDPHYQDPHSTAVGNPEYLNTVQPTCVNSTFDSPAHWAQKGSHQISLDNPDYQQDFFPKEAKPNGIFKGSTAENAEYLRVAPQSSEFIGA

Row | Compound | Biochem EGFR % Inhibition (P.167) (EGFR) [%] | PDGF Kinase % Inhibition (P.119) (PDGF-R) [%]
1 | COC1CCCN1C=C1C(=O)Nc2c(Br)cc(Br)cc21 (racemic) [10740/A04] | 5.2 | –
2 | COC1CCCN1C=C1C(=O)Nc2ccc(I)cc21 (racemic) [10740/B04] | 36.9 | –
3 | Cc1c(Br)cc(Br)c2c1C(=Cc1ccc(CO)o1)C(=O)N2 [10739/H11] | 49.9 | 4.2
4 | O=C1Nc2c(Br)cc(Br)cc2C1=Cc1cnc2ccccc2c1 [10740/A02] | −2.4 | –
5 | O=C1Nc2c(Br)cc(Br)cc2C1=Cc1ccnc2ccccc12 [10740/A03] | 8.2 | –
6 | O=C1Nc2c(Br)cc(Br)cc2C1=Cc1ccsc1 [10740/A05] | 30.3 | –
7 | O=C1Nc2c(Br)cc(Br)cc2C1=Cc1ccc2ccccc2n1 [10740/A06] | 13.1 | –
8 | Cn1cc(C=C2C(=O)Nc3c(Br)cc(Br)cc32)c2ccccc21 [10740/A07] | 18.7 | –
9 | Cc1[nH]c2ccccc2c1C=C1C(=O)Nc2c(Br)cc(Br)cc21 [10740/A08] | −7.9 | –
10 | O=C1Nc2c(Br)cc(Br)cc2C1=Cc1cc(Br)cs1 [10740/A10] | 21.9 | –
11 | CCCCOc1ccc(C=C2C(=O)Nc3c(Br)cc(Br)cc32)cc1 [10740/A11] | 26.0 | –
12 | O=C1Nc2ccc(I)cc2C1=Cc1cnc2ccccc2c1 [10740/B02] | 46.1 | –
13 | O=C1Nc2ccc(I)cc2C1=Cc1ccnc2ccccc12 [10740/B03] | 40.1 | –
14 | O=C1Nc2ccc(I)cc2C1=Cc1ccsc1 [10740/B05] | 30.7 | –
15 | O=C1Nc2ccc(I)cc2C1=Cc1ccc2ccccc2n1 [10740/B06] | 44.4 | –
16 | Cn1cc(C=C2C(=O)Nc3ccc(I)cc32)c2ccccc21 [10740/B07] | 48.9 | –
17 | Cc1[nH]c2ccccc2c1C=C1C(=O)Nc2ccc(I)cc21 [10740/B08] | 34.8 | –
18 | O=C1Nc2ccc(I)cc2C1=Cc1cc(Br)cs1 [10740/B10] | 39.9 | –
19 | CCCCOc1ccc(C=C2C(=O)Nc3ccc(I)cc32)cc1 [10740/B11] | 48.1 | –
20 | Cc1c(Br)ccc2c1C(=Cc1cnc3ccccc3c1)C(=O)N2 [10740/C02] | 15.6 | –
21 | Cc1c(Br)ccc2c1C(=Cc1ccnc3ccccc13)C(=O)N2 [10740/C03] | 7.2 | –
22 | COC1CCCN1C=C1C(=O)Nc2ccc(Br)c(C)c21 (centres unmarked) [10740/C04] | 7.8 | –
23 | Cc1c(Br)ccc2c1C(=Cc1ccsc1)C(=O)N2 [10740/C05] | 3.5 | –
24 | Cc1c(Br)ccc2c1C(=Cc1ccc3ccccc3n1)C(=O)N2 [10740/C06] | 18.2 | –
25 | Cc1c(Br)ccc2c1C(=Cc1cn(C)c3ccccc13)C(=O)N2 [10740/C07] | 5.0 | –

Row | Compound | Biochem EGFR % Inhibition (P.167) (EGFR) [%] | PDGF Kinase % Inhibition (P.119) (PDGF-R) [%]
26 | Cc1[nH]c2ccccc2c1C=C1C(=O)Nc2ccc(Br)c(C)c21 [10740/C08] | 10.7 | –
27 | Cc1c(Br)ccc2c1C(=Cc1cc(Br)cs1)C(=O)N2 [10740/C10] | 21.9 | –
28 | CCCCOc1ccc(C=C2C(=O)Nc3ccc(Br)c(C)c32)cc1 [10740/C11] | 18.7 | –
29 | CNS(=O)(=O)c1ccc2c(c1)C(=Cc1cnc3ccccc3c1)C(=O)N2 [10740/D02] | 0.0 | –
30 | CNS(=O)(=O)c1ccc2c(c1)C(=Cc1ccnc3ccccc13)C(=O)N2 [10740/D03] | −6.9 | –
31 | CNS(=O)(=O)c1ccc2c(c1)C(=CN1CCCC1OC)C(=O)N2 (centres unmarked) [10740/D04] | −1.2 | –
32 | CNS(=O)(=O)c1ccc2c(c1)C(=Cc1ccsc1)C(=O)N2 [10740/D05] | 7.4 | –
33 | CNS(=O)(=O)c1ccc2c(c1)C(=Cc1ccc3ccccc3n1)C(=O)N2 [10740/D06] | 5.8 | –
34 | CNS(=O)(=O)c1ccc2c(c1)C(=Cc1cn(C)c3ccccc13)C(=O)N2 [10740/D07] | −3.0 | –
35 | CNS(=O)(=O)c1ccc2c(c1)C(=Cc1c(C)[nH]c3ccccc13)C(=O)N2 [10740/D08] | −5.7 | –
36 | CNS(=O)(=O)c1ccc2c(c1)C(=Cc1cc(Br)cs1)C(=O)N2 [10740/D10] | 9.9 | –
37 | CCCCOc1ccc(C=C2C(=O)Nc3ccc(S(=O)(=O)NC)cc32)cc1 [10740/D11] | 19.3 | –
38 | O=C1Nc2ccc(S(=O)(=O)Nc3ccc(C(F)(F)F)cc3)cc2C1=Cc1cnc2ccccc2c1 [10740/E02] | −7.7 | –
39 | O=C1Nc2ccc(S(=O)(=O)Nc3ccc(C(F)(F)F)cc3)cc2C1=Cc1ccnc2ccccc12 [10740/E03] | 24.6 | –
40 | COC1CCCN1C=C1C(=O)Nc2ccc(S(=O)(=O)Nc3ccc(C(F)(F)F)cc3)cc21 (centres unmarked) [10740/E04] | 12.3 | –
41 | O=C1Nc2ccc(S(=O)(=O)Nc3ccc(C(F)(F)F)cc3)cc2C1=Cc1ccsc1 [10740/E05] | 29.1 | –
42 | O=C1Nc2ccc(S(=O)(=O)Nc3ccc(C(F)(F)F)cc3)cc2C1=Cc1ccc2ccccc2n1 [10740/E06] | 0.0 | –
43 | Cn1cc(C=C2C(=O)Nc3ccc(S(=O)(=O)Nc4ccc(C(F)(F)F)cc4)cc32)c2ccccc21 [10740/E07] | 2.7 | –
44 | Cc1[nH]c2ccccc2c1C=C1C(=O)Nc2ccc(S(=O)(=O)Nc3ccc(C(F)(F)F)cc3)cc21 [10740/E08] | 3.1 | –
45 | O=C1Nc2ccc(S(=O)(=O)Nc3ccc(C(F)(F)F)cc3)cc2C1=Cc1cc(Br)cs1 [10740/E10] | 33.0 | –
46 | CCCCOc1ccc(C=C2C(=O)Nc3ccc(S(=O)(=O)Nc4ccc(C(F)(F)F)cc4)cc32)cc1 [10740/E11] | 8.8 | –
47 | O=C1Nc2ccc(S(=O)(=O)N3CCOCC3)cc2C1=Cc1cnc2ccccc2c1 [10740/F02] | 5.8 | –
48 | O=C1Nc2ccc(S(=O)(=O)N3CCOCC3)cc2C1=Cc1ccnc2ccccc12 [10740/F03] | 16.8 | –
49 | COC1CCCN1C=C1C(=O)Nc2ccc(S(=O)(=O)N3CCOCC3)cc21 (centres unmarked) [10740/F04] | 11.1 | –
50 | O=C1Nc2ccc(S(=O)(=O)N3CCOCC3)cc2C1=Cc1ccsc1 [10740/F05] | 14.8 | –

Row | Compound | Biochem EGFR % Inhibition (P.167) (EGFR) [%] | PDGF Kinase % Inhibition (P.119) (PDGF-R) [%]
51 | O=C1Nc2ccc(S(=O)(=O)N3CCOCC3)cc2C1=Cc1ccc2ccccc2n1 [10740/F06] | 19.9 | –
52 | Cn1cc(C=C2C(=O)Nc3ccc(S(=O)(=O)N4CCOCC4)cc32)c2ccccc21 [10740/F07] | −4.2 | –
53 | Cc1[nH]c2ccccc2c1C=C1C(=O)Nc2ccc(S(=O)(=O)N3CCOCC3)cc21 [10740/F08] | 5.0 | –
54 | O=C1Nc2ccc(S(=O)(=O)N3CCOCC3)cc2C1=Cc1cc(Br)cs1 [10740/F10] | 9.5 | –
55 | CCCCOc1ccc(C=C2C(=O)Nc3ccc(S(=O)(=O)N4CCOCC4)cc32)cc1 [10740/F11] | 5.4 | –
56 | O=C1Nc2ccc(CCCl)cc2C1=Cc1cnc2ccccc2c1 [10740/G02] | −9.4 | –
57 | O=C1Nc2ccc(CCCl)cc2C1=Cc1ccnc2ccccc12 [10740/G03] | 19.5 | –
58 | COC1CCCN1C=C1C(=O)Nc2ccc(CCCl)cc21 (centres unmarked) [10740/G04] | 7.6 | –
59 | O=C1Nc2ccc(CCCl)cc2C1=Cc1ccsc1 [10740/G05] | 18.7 | –
60 | O=C1Nc2ccc(CCCl)cc2C1=Cc1ccc2ccccc2n1 [10740/G06] | −1.2 | –
61 | Cn1cc(C=C2C(=O)Nc3ccc(CCCl)cc32)c2ccccc21 [10740/G07] | 27.9 | –
62 | Cc1[nH]c2ccccc2c1C=C1C(=O)Nc2ccc(CCCl)cc21 [10740/G08] | −9.1 | –
63 | O=C1Nc2ccc(CCCl)cc2C1=Cc1cc(Br)cs1 [10740/G10] | 1.9 | –
64 | CCCCOc1ccc(C=C2C(=O)Nc3ccc(CCCl)cc32)cc1 [10740/G11] | −3.4 | –
65 | Cc1c(Br)cc(Br)c2c1C(=Cc1cnc3ccccc3c1)C(=O)N2 [10740/H02] | −9.1 | –
66 | Cc1c(Br)cc(Br)c2c1C(=Cc1ccnc3ccccc13)C(=O)N2 [10740/H03] | 16.0 | –
67 | COC1CCCN1C=C1C(=O)Nc2c(Br)cc(Br)c(C)c21 (centres unmarked) [10740/H04] | −21.0 | –
68 | Cc1c(Br)cc(Br)c2c1C(=Cc1ccsc1)C(=O)N2 [10740/H05] | −4.4 | –
69 | Cc1c(Br)cc(Br)c2c1C(=Cc1ccc3ccccc3n1)C(=O)N2 [10740/H06] | 4.8 | –
70 | Cc1c(Br)cc(Br)c2c1C(=Cc1cn(C)c3ccccc13)C(=O)N2 [10740/H07] | −5.3 | –
71 | Cc1[nH]c2ccccc2c1C=C1C(=O)Nc2c(Br)cc(Br)c(C)c21 [10740/H08] | −24.3 | –
72 | Cc1c(Br)cc(Br)c2c1C(=Cc1cc(Br)cs1)C(=O)N2 [10740/H10] | −25.5 | –
73 | CCCCOc1ccc(C=C2C(=O)Nc3c(Br)cc(Br)c(C)c32)cc1 [10740/H11] | 0.9 | –
